The record followed here is ChEMBL document CHEMBL3596165, “Synthesis, structure elucidation and identification of antiproliferative activities of a novel class of thiophene bioisosteres bearing the privileged 7,8-dihydroimidazo[2,1-c][1,2,4]triazin-4(6H)-one scaffold” (Bioorg Med Chem, 2015).

Type in all cases: functional
What all share (conditions): read-out: GI

Assay [1] has as its system HeLa. The experiment in a line: Antiproliferative activity against human HeLa cells at 50 ug/ml after 24 hrs by BrdUrd incorporation assay.
Assay [2] deals with HeLa. Put plainly: Antiproliferative activity against human HeLa cells at 50 ug/ml after 48 hrs by BrdUrd incorporation assay.
Assay [3] concerns HeLa. Put plainly: Antiproliferative activity against human HeLa cells at 50 ug/ml after 72 hrs by BrdUrd incorporation assay.
Assay [4] concerns T47D. The experiment in a line: Antiproliferative activity against human T47D cells at 50 ug/ml after 72 hrs by BrdUrd incorporation assay.
For assay [5], the system named is T47D. Put plainly: Antiproliferative activity against human T47D cells at 50 ug/ml after 48 hrs by BrdUrd incorporation assay.
The test system of assay [6] is T47D. The experiment in a line: Antiproliferative activity against human T47D cells at 50 ug/ml after 24 hrs by BrdUrd incorporation assay.

Structures are written as SMILES.

As for `O=c1c(-c2ccco2)nnc2n1CCN2c1ccccc1`, the inhibition of growth at 50 µg/mL in assay [1] was determined as 50%; in assay [2] it was 75%; in assay [3], 100%; in assay [4], 95%; in assay [5], 85%; in assay [6], 50%.
On to `COc1ccccc1N1CCn2c1nnc(-c1ccco1)c2=O`, for which the inhibition of growth at 50 µg/mL worked out at 25% in assay [1]; 35% in assay [2]; 80% in assay [3]; 70% in assay [4]; 30% in assay [5]; 0% in assay [6].
For `O=c1c(-c2ccco2)nnc2n1CCN2c1ccccc1Cl`, the inhibition of growth at 50 µg/mL in assay [1] is 80%; in assay [2], 80%; in assay [3], 100%; in assay [4], 25%; in assay [5], 15%; in assay [6], 5%.
As to `O=c1c(-c2ccco2)nnc2n1CCN2c1cccc(Cl)c1`, the inhibition of growth at 50 µg/mL was 80% in assay [1]; 80% in assay [2]; 95% in assay [3]; 80% in assay [4]; 50% in assay [5]; 20% in assay [6].
As to `Cc1cccc(N2CCn3c2nnc(-c2ccco2)c3=O)c1C`, the inhibition of growth at 50 µg/mL in assay [1] is 60%; in assay [2] it was 75%; in assay [3], 90%; in assay [4], 25%; in assay [5] it was 15%; in assay [6], 0%.
With `O=c1c(-c2ccco2)nnc2n1CCN2c1ccc(Cl)c(Cl)c1`, the inhibition of growth at 50 µg/mL in assay [1] turned out to be 50%; in assay [2] it was 50%; in assay [3], 95%; in assay [4] it was 40%; in assay [5], 20%; in assay [6], 10%.
